Measurements from ChEMBL document CHEMBL1201862, “PubChem BioAssay data set” (2004).
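Dose response: 5 concentrations. Exposure: 48 h. Format: 96-well plates. Endpoint: linear interpolation; highest concentration if not reached. The concentration for 50% growth inhibition is given as GI50.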 The source made the active and inactive calls. Cut-off read from the data, not from the text of the source: active = GI50 up to about 1.1 µM and inactive = higher.

Experiments:
Assay in all cases: NCI tumour cell line growth inhibition, 48 h
IGROV-1 = system: IGROV-1
SK-MEL-5 = system: SK-MEL-5
SW-620 = system: SW-620
Malme-3M = system: Malme-3M
HT-29 = system: HT-29
COLO 205 = system: COLO 205
NCI-H226 = system: NCI-H226
SNB-19 = system: SNB-19
SF-268 = system: SF-268
SF-295 = system: SF-295
NCI-H23 = system: NCI-H23
K562 = system: K562
OVCAR-3 = system: OVCAR-3
MOLT-4 = system: MOLT-4
EKVX = system: EKVX
RPMI-8226 = system: RPMI-8226
SR = system: SR

Measured: GI50

CC(=O)Nc1ccc(-c2nnc(SCC(=O)Nc3ccc(Cl)cc3Cl)o2)cc1
inactive: IGROV-1 37.1 µM | SK-MEL-5 19.5 µM | SW-620 32.4 µM | Malme-3M 20.7 µM | HT-29 31.8 µM | COLO 205 28.6 µM | NCI-H226 29.2 µM | SNB-19 22.6 µM | SF-268 44.7 µM | SF-295 57.8 µM | NCI-H23 26.2 µM | K562 28.8 µM | OVCAR-3 18.6 µM | MOLT-4 40.8 µM

COC(OC)c1cc2c(cc1C(=O)[C@@]13CCC[C@@H]1NC(=O)O3)OCO2
inactive: EKVX > 100 µM | IGROV-1 73.5 µM | SK-MEL-5 41.2 µM | SW-620 > 100 µM | Malme-3M 22.6 µM | HT-29 > 100 µM | NCI-H226 > 100 µM | SNB-19 91.2 µM | SF-268 > 100 µM | SF-295 > 100 µM | NCI-H23 78.5 µM | K562 > 100 µM | OVCAR-3 > 100 µM | MOLT-4 > 100 µM

Cn1nc2ccccc2cc1=O
inactive: EKVX > 100 µM | IGROV-1 > 100 µM | RPMI-8226 > 100 µM | SK-MEL-5 > 100 µM | SW-620 > 100 µM | Malme-3M > 100 µM | HT-29 > 100 µM | COLO 205 > 100 µM | NCI-H226 > 100 µM | SNB-19 > 100 µM | SF-268 > 100 µM | SF-295 > 100 µM | NCI-H23 > 100 µM | K562 > 100 µM | OVCAR-3 > 100 µM

O=C(O)CC[C@H](NC(=O)c1ccc(-n2nc3ccc(=O)cc-3[nH]c2=O)cc1)C(=O)O
inactive: EKVX > 100 µM | IGROV-1 > 100 µM | RPMI-8226 > 100 µM | SK-MEL-5 > 100 µM | SW-620 > 100 µM | Malme-3M > 100 µM | HT-29 > 100 µM | COLO 205 > 100 µM | SNB-19 > 100 µM | SF-268 > 100 µM | SF-295 > 100 µM | NCI-H23 > 100 µM | K562 > 100 µM | SR > 100 µM | OVCAR-3 > 100 µM | MOLT-4 > 100 µM

CCOc1ccc(NC(=O)CC2Sc3ccccc3NC2=O)cc1 (stereo unspecified)
inactive: EKVX > 100 µM | IGROV-1 > 100 µM | RPMI-8226 65.5 µM | SK-MEL-5 > 100 µM | SW-620 14.5 µM | Malme-3M 97.5 µM | HT-29 85.5 µM | COLO 205 41.1 µM | NCI-H226 > 100 µM | SNB-19 54.1 µM | SF-268 53 µM | SF-295 > 100 µM | NCI-H23 > 100 µM | K562 65.2 µM | OVCAR-3 42.3 µM | MOLT-4 > 100 µM

COC(=O)N/N=C(\C)CC(=O)Nc1ccc(Cl)cc1
inactive: EKVX 46.7 µM | IGROV-1 > 100 µM | RPMI-8226 > 100 µM | SK-MEL-5 > 100 µM | SW-620 > 100 µM | Malme-3M > 100 µM | HT-29 > 100 µM | COLO 205 > 100 µM | NCI-H226 > 100 µM | SF-268 > 100 µM | SF-295 > 100 µM | NCI-H23 > 100 µM | K562 > 100 µM | OVCAR-3 > 100 µM | MOLT-4 > 100 µM

Cc1nc(C(N)=S)sc1C(=O)/C=C/c1cccc(O)c1
inactive: EKVX > 100 µM | IGROV-1 > 100 µM | RPMI-8226 25.9 µM | SK-MEL-5 > 100 µM | SW-620 82.8 µM | Malme-3M > 100 µM | HT-29 > 100 µM | COLO 205 > 100 µM | NCI-H226 > 100 µM | SF-268 87.3 µM | SF-295 > 100 µM | NCI-H23 > 100 µM | K562 29.9 µM | OVCAR-3 > 100 µM | MOLT-4 21.9 µM

CC(C)=CC(=O)c1c(C(=O)O)nc2ccccc2[n+]1[O-]
inactive: EKVX > 100 µM | IGROV-1 > 100 µM | RPMI-8226 > 100 µM | SK-MEL-5 > 100 µM | SW-620 > 100 µM | HT-29 > 100 µM | COLO 205 > 100 µM | NCI-H226 > 100 µM | SNB-19 > 100 µM | SF-268 > 100 µM | SF-295 > 100 µM | NCI-H23 > 100 µM | K562 > 100 µM | SR > 100 µM | MOLT-4 > 100 µM

CN1S(=O)(=O)N(C)P12(N=P(CP(=NP13(N(C)S(=O)(=O)N1C)N(C)S(=O)(=O)N3C)(c1ccccc1)c1ccccc1)(c1ccccc1)c1ccccc1)N(C)S(=O)(=O)N2C
inactive: EKVX > 100 µM | IGROV-1 > 100 µM | RPMI-8226 > 100 µM | SK-MEL-5 > 100 µM | SW-620 > 100 µM | Malme-3M > 100 µM | HT-29 > 100 µM | COLO 205 > 100 µM | NCI-H226 > 100 µM | SNB-19 > 100 µM | SF-268 > 100 µM | NCI-H23 > 100 µM | K562 > 100 µM | OVCAR-3 > 100 µM | MOLT-4 > 100 µM

OC12CC/C(=N/OCc3ccccc3)CC1c1ccccc12 (stereo unspecified)
inactive: EKVX > 100 µM | IGROV-1 > 100 µM | RPMI-8226 > 100 µM | SK-MEL-5 > 100 µM | Malme-3M > 100 µM | HT-29 > 100 µM | COLO 205 > 100 µM | NCI-H226 > 100 µM | SNB-19 > 100 µM | SF-268 > 100 µM | SF-295 > 100 µM | NCI-H23 > 100 µM | K562 > 100 µM | OVCAR-3 > 100 µM | MOLT-4 > 100 µM

COC(=O)/C(=C/CC(N=C(c1ccccc1)c1ccccc1)C(=O)OC)N=C(c1ccccc1)c1ccccc1 (stereo unspecified)
inactive: EKVX > 100 µM | IGROV-1 > 100 µM | RPMI-8226 79.3 µM | SK-MEL-5 > 100 µM | SW-620 > 100 µM | Malme-3M > 100 µM | HT-29 > 100 µM | COLO 205 > 100 µM | SNB-19 > 100 µM | SF-268 > 100 µM | SF-295 > 100 µM | NCI-H23 > 100 µM | K562 > 100 µM | SR > 100 µM | OVCAR-3 > 100 µM | MOLT-4 > 100 µM

N#CC1=C(c2ccccc2)NN(Cc2ccccc2)C(c2ccc(Cl)cc2)CC1=O (stereo unspecified)
inactive: RPMI-8226 18.8 µM | SK-MEL-5 15.6 µM | SW-620 20.2 µM | HT-29 17.3 µM | COLO 205 36.1 µM | NCI-H226 57.8 µM | SNB-19 22.5 µM | SF-268 29.3 µM | SF-295 27.5 µM | NCI-H23 20.1 µM | SR 20.6 µM | MOLT-4 4.91 µM

CN(C)C(=Nc1nc(N(C)C)s[s+]1)N(C)C
inactive: EKVX > 100 µM | IGROV-1 > 100 µM | RPMI-8226 > 100 µM | SK-MEL-5 > 100 µM | SW-620 > 100 µM | HT-29 > 100 µM | NCI-H226 72.8 µM | SNB-19 > 100 µM | SF-268 > 100 µM | SF-295 > 100 µM | NCI-H23 > 100 µM | K562 > 100 µM | MOLT-4 > 100 µM
